These results are taken from US20260256922A1, “PRODRUGS USEFUL FOR REDUCING ANTHRACYCLINE CARDIOTOXICITY” (WAKE FOREST UNIVERSITY HEALTH SCIENCES, priority 2022, published 2026).

The test system of series [1] is H9C2 cardiomyoblasts. Conditions: H9C2, 10 and 20 μM, 24 or 48 h; difference not significant at 48 h.
Method: Cytotoxicity of DOX and prodrugs in H9C2 cardiomyoblasts. Media from cells exposed for 24 or 48 h to 10 or 20 µM of c1, c2, DOX or vehicle (DMSO, final concentration 0.1% in all samples) was centrifuged to remove cells and cell debris, and supernatants were assessed spectrophotometrically by lactose dehydrogenase (LDH) assay to evaluate release into the media as a measure of cytotoxicity (n=6 or more). *, p<0.05; **, p<0.01; ***, p<0.001; ****, p<0.0001.
Cytotoxicity of c1, c2 and DOX was evaluated by measuring the release of lactate dehydrogenase (LDH) into the culture medium over time.
H9C2 and 4T1 cells were plated at a density of 10,000 per well in 96-well plates. Twenty-four h after plating, cells were treated with 10 or 20 µM DOX (from 20 mM stock dissolved in DMSO, for 0.1% final DMSO) and were incubated for 24 or 48 h. The extracellular medium was centrifuged at 12,000×g for 5 min to pellet cellular debris, and the supernatants were assessed for release of lactate dehydrogenase (LDH) using a colorimetric activity assay (Invitrogen) as directed and spectral detection (Benchmark or BioRad microplate reader). Values were used to determine % cytotoxicity as described in the kit, using treatment with lysis buffer to release all LDH into the medium (defining 100% release) or cells without treatment (to define 0% release).
A further series has as its system Nrf2. Briefly: Nrf2 and HO-1 immunoblots in H9C2 cells. Type of series: cell-based, rat. As to conditions: H9C2, relative to DMSO vehicle. From the text: The bar graphs below represent the mean±SEM. Results were statistically different between c1 and DOX in both cases (p=0.002 and p=0.019), and more marginally so between c1 and DMSO (p=0.011 and p.=0.025), for Nrf2 and HO-1, respectively.
On the technique in general: In western blotting, separated proteins are transferred to a membrane and probed.

A short description of series [2]: Time-dependent DOX release from prodrugs in presence of H2O2 (LCMS). As to conditions: prodrug 10 μM, H2O2 10 μM, ammonium bicarbonate buffer 0.1 M pH 7.4. Type of series: physicochemical. Here is the method: FIG. 1. Time-course for DOX release from prodrugs (10 μM) in ammonium bicarbonate buffer (0.1 M, pH 7.4) at room temperature and in the presence of H2O2 (10 μM). A calibration curve was used to determine the concentration of free DOX at each time point by LCMS. Plotted as the mean±standard error of the mean (SEM) from three independent experiments.
To confirm this reactivity, we incubated c1 (10 μM) with H2O2 (10 μM) at room temperature in ammonium bicarbonate buffer (0.1 M, pH 7.4). At various time points, an aliquot was removed and analyzed by LCMS. Using a calibration curve, we determined the percentage of released DOX over the course of two hours. […] For comparison, we also assessed the reactivity of c2 towards the same concentration of peroxides. Like c1, c2 also functioned as an H2O2-activated DOX prodrug, but with faster kinetics, as quantitative release of free DOX was realized within 60 min.
A stock solution of c1 (or c2, 10 mM) in DMSO and H2O2 (10 mM) in ammonium bicarbonate buffer (0.1M, pH 7.4) were prepared immediately prior to use. […] At various time points (0 min, 10 min, 35 min, 60 min, 80 min, 100 min, 120 min), a 1 mL (inject volume 60 μL) aliquot was removed and analyzed by LC-MS (using a C18 analytical column and eluting at 0.4 mL/min with a linear gradient (20-90% v/v) MeOH/H2O (0-2 min), followed by 90% v/v MeOH/H2O (2-19 min)). […]

The next series relates to caspase-3. Briefly: Caspase-3 cleavage immunoblot in H9C2 cells. Conditions: H9C2, 10 or 20 μM, 24 h. On the procedure:
FIG. 6. […] H9C2 cells in culture were treated for 24 hr with c1, c2, DOX or vehicle (DMSO), then harvested into lysis buffer and immunoblotted for caspase-3. Data analyzed by ImageJ were used to assess the percent of the two bands present as the lower band.
We next evaluated apoptotic signaling through caspase-3 cleavage at 24 h to compare the experimental compounds.
To evaluate levels of caspase cleavage (using an antibody recognizing both cleaved and uncleaved, Cell Signaling, cat #9662), Nrf2 (antibody from Thermo Fisher, cat #PA5-27882), and HO-1 (antibody from Proteintech, cat #10701-1-AP), H9C2 cells were plated at a density of 450,000 per well in a 24-well plate, then treated 24 h later with 10 or 20 µM DOX and incubated another 24 h before harvesting. For some samples, 100 mM hydroxocobalamin (HO-Cbl) was added 5 min before drug treatment. Cells were harvested by removing media (and recovering any non-adherent cells by centrifugation for 5 min at 10,600×g, discarding the supernatant), and combining that with the 120 μL of lysis buffer added to each well. Lysis buffer [50 mM Tris-HCl at pH 8.0, with 100 mM NaCl, 100 µM diethylene triamine pentaacetic acid (DTPA), 20 mM β-glycerophosphate, 0.1% SDS, 0.5% Na Desoxycholate, and 0.5% Triton-X-100] was prepared by freshly adding protease and phosphatase inhibitors before use (1 mM PMSF, 10 μg/mL aprotinin, 1 mM Na3VO4, 10 mM NaF and 10 μg/mL leupeptin). Samples were further incubated on ice for 30 min, then centrifuged at high speed (20,800×g for 10 min) to remove cell debris, and supernatants were mixed with 5×SDS protein sample buffer for Western blot analysis following resolution of 40 μg per sample on 10% SDS-polyacrylamide gels. Protein concentrations of supernatants were determined using a BCA assay (Pierce). Antibodies were used at dilutions of 1:1000 (for HO-1 and caspase-3) or 1:3000 (for Nrf2).

In series [3] the test system is H9C2 cardiomyoblasts. As to the kind of experiment: Uptake into H9C2 cardiomyoblasts by live-cell confocal microscopy. In kind it is cell-based, rat. Conditions: imaging over 18 h. On the procedure:
FIG. 4. Uptake of DOX and prodrugs c1 and c2 by H9C2 cardiomyoblasts. H9C2 cells cultures grown overnight on chambered coverslips in media with 10% serum were switched to Fluorobrite DMEM imaging media supplemented with 5% serum and prepared for live-cell imaging on a Zeiss LSM 880 confocal microscope, then 10 µM of c1, c2, or DOX was added and images were taken every 10 min (averaged every 30 min) for 18 h. Approximately 20 cells present in each field of view were averaged for each sample and time point; normalized and averaged data from two replicates each±SEM were included for c1 and DOX. An earlier independent trial yielded very similar results (Fig. S1).
Uptake of DOX and prodrugs into H9C2 cardiomyoblasts. Before comparing the biological effects of treatments by DOX and prodrugs, it was important to know their time dependence of accumulation into the H9C2 cardiomyoblasts under investigation. For this, confocal microscopy of live cells in culture was used to track in real time the accumulation of the fluorescent molecules into the cells, allowing direct comparisons between c1, c2 and Dox. […] Thus, any biological effects observed using c1 rather than DOX will not be due to limited cellular uptake.
To evaluate drug uptake, H9C2 cells were plated at a density of 20,000 per well on 24 well #1.5 polymer chambered coverslips (Ibidi) in media including 10% FBS and allowed to adhere for ~20 h. Prior to imaging analysis, the media was replaced with Fluorobrite DMEM imaging media (Gibco) supplemented with 5% FBS. To 1 mL of media in each well was added either vehicle (DMSO), or a 20 mM stock solution of c1, c2, or DOX to give final concentrations of 10 or 20 µM drug and 0.1% DMSO. […] DOX and the prodrugs were detected with excitation by a 458 nm laser at 0.3% and emission from 535-648 nm.
Each position consisted of a 3 slice z-stack that was compressed with a maximum intensity projection for analysis. […] The mean intensity for both channels was calculated, normalized, and then averaged to 30 min time points.

`COc1cccc2c1C(=O)c1c(O)c3c(c(O)c1C2=O)C[C@@](O)(C(=O)CO)C[C@@H]3O[C@H]1C[C@H](N)[C@H](O)[C@H](C)O1` [DOX, Doxorubicin, reference compound]: the “cytotoxicity (LDH release)” value in the series on H9C2 cardiomyoblasts [1] is on record as “more toxic than c1”. The “HO-1 expression (immunoblot)” value in the series on Nrf2 was “completely suppressed both”.
Take `COc1cccc2c1C(=O)c1c(O)c3c(c(O)c1C2=O)C[C@@](O)(C(=O)CO)C[C@@H]3O[C@H]1C[C@H](NC(=O)OCc2ccc(B3OC(C)(C)C(C)(C)O3)cc2)[C@H](O)[C@H](C)O1` [c2]: the “cytotoxicity (LDH release)” value in the series with H9C2 cardiomyoblasts [1] is reported as “intermediate toxicity but more similar to DOX than c1”. In series [2], the “time to quantitative release of free DOX” value is listed as ≤ 60 min. For the same compound, the caspase-3 cleavage entry in the series with caspase-3 is on record as “neither c1 nor c2 at either 10 or 20 UM caused notable caspase-3 cleavage”. Moreover, the “accumulation in cells compared with DOX” value in the series on H9C2 cardiomyoblasts [3] is “as slow as or slower than Dox”.
